Assays:
[1] = tested on: VEGF; test: VEGF expression in adult mice brains (western blot); format: in vivo, C57BL/6J mice; settings: 75% xenon and 25% oxygen 2 h, harvested 0-48 h after
Method: Studies were performed on 8 to 12-wk-old C57BL/6J mice (Jackson Labs, Bar Harbor, Me.) that were fed a standard laboratory diet. All procedures were approved by the Home Office.
The mice were exposed to 75% xenon and 25% oxygen for two hours. The xenon gas was administered to the mice by inhalation. The brains of said adult mice were then harvested as described below between 0-48 hours after exposure to the xenon gas.
The tissues were homogenised and western blots of adult mice brain samples were carried out as described in Example 1.
The primary antibodies were anti-α-tubulin antibody, and monoclonal mouse anti-VEGF antibody.

[2] = tested on: erythropoietin (EPO); test: EPO protein expression in neonatal rat brain (western blot); format: in vivo, Sprague Dawley rats; settings: neonatal rat brains, 75% xenon 2 h, harvested 0-24 h after
Method: (§1) Sprague Dawley, 7 day neonatal rats were used. All procedures were approved by the Home Office.
The neonatal rats were exposed to 75% xenon for two hours. The gas was administered by gas inhalation. The brains of said rats were then harvested as described below between 0-24 hours after exposure to the xenon gas.
The tissues were homogenised and western blots of neonatal rat brain samples were carried out as described in Example 1.
The primary antibodies were anti-α-tubulin antibody, and monoclonal mouse anti-erythropoietin antibody.

[3] = tested on: HIF-1α; test: HIF-1α expression in the kidney after exposure to xenon (western blot); format: in vivo, C57BL/6J mice; settings: adult mice, 75% xenon 2 h by inhalation, kidneys harvested 0-24 h after
Method: Studies were performed on adult 8- to 12-wk-old C57BL/6J mice (Jackson Labs, Bar Harbor, Me.) that were fed a standard laboratory diet. All procedures were approved by the Home Office.
The mice were exposed to 75% xenon for two hours. The xenon gas was administered to the mice by inhalation. The kidneys of said mice were then harvested as described below between 0-24 hours after exposure to the xenon gas.
Once sacrificed, the kidneys were harvested and frozen at −80° C. […] Protein concentration in the supernatant was determined by DC (detergent-compatible) protein assay (Bio-Rad, Herts, UK), based on the Lowry method. […]
After washing in TBS-T the membrane was incubated with the appropriate goat-derived horseradish peroxidase-conjugated secondary antibody at room temperature for 1½ hours to detect the primary antibodies. The immunoreactive bands were visualised with the enhanced chemiluminescence system and detected on X-ray film. The results were quantified by densitometry as an x-fold increase relative to the control without xenon—the amount of protein applied was normalised by the densitometry of the tubulin (which was unaltered by the intervention itself). […]

[4] = tested on: brain; test: Cortical infarction in neonatal rat brain, xenon and cooling; format: in vivo, Sprague Dawley rats; parameters: Total area of infraction: unit not given here
Method: as §1
The neonatal rats were exposed to: • (i) 20% xenon alone for 2 hours; • (ii) 35° C. hypothermia for 90 minutes; or • (iii) Hypothermia (35° C.) for 90 minutes before, 1 hour later, 20% xenon for 2 hours.
The gas was administered by gas inhalation.
The brains of said rats were then harvested at a set time after exposure to the xenon gas. A total of 11 rats were examined for each treatment group.
The brains were assessed for cortical infarction in the affected hemisphere.
The “intervention” rats under went an ischaemic injury to the brain.

[5] = tested on: brain; settings: administered 4 hours after hypoxic-ischaemic injury, neonatal rats; cited from earlier work
[6] = tested on: NMDA receptor; settings: 80% xenon, cultured hippocampal neurons; cited from earlier work

SMILES: [Xe] [xenon]
- expression of VEGF [1]: time-dependent increase
- expression of EPO protein [2]: time-dependent increase
- HIF-1α expression in the kidneys [3]: time-dependent increase
- Total area of infraction ([4]; Control rats, 20% xenon alone column): 88.3 (±4.1)
- Total area of infraction ([4]; Control rats, combination column): 92.7 (±6.7)
- Total area of infraction ([4]; Intervention rats (ischaemic injury), 20% xenon alone for 2 hours): 85.3 (±8.9)
- Total area of infraction ([4]; Intervention rats (ischaemic injury), combination: hypothermia 35° C. 90 min, 1 hour later 20% xenon 2 hours): 74.1 (±7.8)
- interaction of xenon and cooling on area of infraction ([4]; hypothermia followed by xenon, administered asynchronously): synergy
- neuroprotection by combination of xenon and hypothermia [5]: synergistic neuroprotection
- reduction of NMDA-activated currents [6]: up to 60%

From US20090252814A1, “USE OF XENON FOR ORGAN PROTECTION” (priority 2005, published 2009)
